According to patent US11464770B2, “Anticancer pharmaceutical composition” (NATIONAL CANCER CENTER, priority 2016, dated 2022):
pIC50: −log10 of the molar value. Like-named read-outs stand apart in the source and are kept apart here.

Assays:
[1] = tested on: melanoma cell lines; assay: Cell based assay, cell viability (CellTiter-Glo), melanoma cell lines; details: Homo sapiens; LOX-IMVI cell line
In short: (§1)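 Trypsin-EDTA-detached lines seeded; 24 h later compound added (final 0–2 μM); 72 h exposure; ATP luminescence viability readout.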

[2] = tested on: neuroblastoma cell lines; assay: Cell based assay, cell viability (CellTiter-Glo), neuroblastoma cell lines; details: Homo sapiens; SH-SY5Y cell line
In short: as §1

[3] = tested on: breast cancer cell lines (e.g. MDA-MB-231, SK-BR-3, MDA-MB-468, HCC1954); assay: Cell based assay, cell viability (CellTiter-Glo), breast cancer cell lines
In short: as §1

[4] = Homo sapiens, BT-20 cells, 72 hours treatment, CellTiter-Glo cell viability, read-out: IC50, Breast cancer cell line BT-20
[5] = Homo sapiens, HCC1395 cells, 72 hours treatment, CellTiter-Glo cell viability, read-out: IC50, Breast cancer cell line HCC1395
[6] = Homo sapiens, HCC1954 cells, 72 hours treatment, CellTiter-Glo cell viability, read-out: IC50, Breast cancer cell line HCC1954
[7] = Homo sapiens, JIMT-1 cells, 72 hours treatment, CellTiter-Glo cell viability, read-out: IC50, Breast cancer cell line JIMT-1
[8] = Homo sapiens, MCF7 cells, 72 hours treatment, CellTiter-Glo cell viability, read-out: IC50, Breast cancer cell line MCF7
[9] = Homo sapiens, MDA-MB-231 cells, 72 hours treatment, CellTiter-Glo cell viability, read-out: IC50, Breast cancer cell line MDA-MB-231
[10] = Homo sapiens, MDA-MB-468 cells, 72 hours treatment, CellTiter-Glo cell viability, read-out: IC50, Breast cancer cell line MDA-MB-468
[11] = Homo sapiens, SK-BR-3 cells, 72 hours treatment, CellTiter-Glo cell viability, read-out: IC50, Breast cancer cell line SK-BR-3
[12] = MDA-MB-231-L/DOX cells, 72 hours treatment, CellTiter-Glo cell viability, read-out: IC50, Breast cancer cell line MDA-MB-231-L/DOX

pIC50 [1]	pIC50 [2]	pIC50 ([3]; Breast cancer cell line MDA-MB-231-L/DOX, 72 hours, CellTiter-Glo, read-out: IC50, MDA-MB-231-L/DOX)	pIC50 ([3]; Homo sapiens, Breast cancer cell line BT-20, 72 hours, CellTiter-Glo, read-out: IC50, BT-20)	pIC50 ([3]; Homo sapiens, Breast cancer cell line HCC1395, 72 hours, CellTiter-Glo, read-out: IC50, HCC1395)	pIC50 ([3]; Homo sapiens, Breast cancer cell line HCC1954, 72 hours, CellTiter-Glo, read-out: IC50, HCC1954)	pIC50 ([3]; Homo sapiens, Breast cancer cell line JIMT-1, 72 hours, CellTiter-Glo, read-out: IC50, JIMT-1)	pIC50 ([3]; Homo sapiens, Breast cancer cell line MCF7, 72 hours, CellTiter-Glo, read-out: IC50, MCF7)	pIC50 ([3]; Homo sapiens, Breast cancer cell line MDA-MB-231, 72 hours, CellTiter-Glo, read-out: IC50, MDA-MB-231)	pIC50 ([3]; Homo sapiens, Breast cancer cell line MDA-MB-468, 72 hours, CellTiter-Glo, read-out: IC50, MDA-MB-468)	pIC50 ([3]; Homo sapiens, Breast cancer cell line SK-BR-3, 72 hours, CellTiter-Glo, read-out: IC50, SK-BR-3)	pIC50 [3, 4]	pIC50 [3, 5]	pIC50 [3, 6]	pIC50 [3, 7]	pIC50 [3, 8]	pIC50 [3, 9]	pIC50 [3, 10]	pIC50 [3, 11]	pIC50 [3, 12]	Compound
5.86	< 5.70	< 5.70	< 5.70	< 5.00	< 5.70	< 5.00	< 5.70	< 5.70	< 5.70	5.92	–	–	–	–	–	–	–	–	–	CC(=O)c1c([S+]([O-])Cc2c(F)c(F)c(F)c(F)c2F)[nH]c2c(Br)ccc(Cl)c2c1=O (stereo not drawn) [Compound 78, 3-acetyl-8-bromo-5-chloro-2-(((perfluorophenyl)methyl)sulfinyl)quinolin-4(1H)-one]
5.80	5.91	–	–	–	–	–	–	–	–	–	< 5.70	< 5.00	5.84	< 5.00	< 5.70	5.71	5.75	5.92	< 5.70	CC(=O)c1c([S+]([O-])Cc2ccc(I)cc2)[nH]c2c(Cl)ccc(Cl)c2c1=O (stereo not drawn) [Compound 83, 3-acetyl-5,8-dichloro-2-((4-iodobenzyl)sulfinyl)quinolin-4(1H)-one]
5.84	6.22	–	–	–	–	–	–	–	–	–	< 5.70	< 5.00	5.95	< 5.00	< 5.70	5.80	5.98	6.12	< 5.70	CC(=O)c1c([S+]([O-])Cc2cccnc2)[nH]c2c(Br)ccc(Cl)c2c1=O (stereo not drawn) [Compound 84, 3-acetyl-8-bromo-5-chloro-2-((pyridin-3-ylmethyl)sulfinyl)quinolin-4(1H)-one]
6.15	6.30	–	–	–	–	–	–	–	–	–	< 5.70	< 5.00	6.30	< 5.00	5.83	5.80	6.24	6.24	5.95	Cc1cc(C[S+]([O-])c2[nH]c3c(Cl)ccc(Cl)c3c(=O)c2C(=O)C(C)C)no1 (stereo not drawn) [Compound 86, 5,8-dichloro-3-isobutyryl-2-(((5-methylisoxazol-3-yl)methyl)sulfinyl)quinolin-4(1H)-one]
5.78	5.98	–	–	–	–	–	–	–	–	–	< 5.70	< 5.00	5.87	< 5.00	< 5.70	< 5.70	5.87	5.87	< 5.70	COC(=O)c1ccc(C[S+]([O-])c2[nH]c3c(Cl)ccc(Cl)c3c(=O)c2C(C)=O)o1 (stereo not drawn) [Compound 89, methyl 5-(((3-acetyl-5,8-dichloro-4-oxo-1,4-dihydroquinolin-2-yl)sulfinyl)methyl)furan-2-carboxylate]
6.27	6.32	–	–	–	–	–	–	–	–	–	5.73	< 5.00	6.32	< 5.70	5.89	5.85	6.33	6.33	5.99	Cc1cc(C[S+]([O-])c2[nH]c3c(Br)ccc(Cl)c3c(=O)c2C(=O)C(C)C)no1 (stereo not drawn) [Compound 95, 8-bromo-5-chloro-3-isobutyryl-2-(((5-methylisoxazol-3-yl)methyl)sulfinyl)quinolin-4(1H)-one]
